This is an account of results in patent US20250042895A1, “INHIBITORS OF ULK1 AND METHODS OF USE” (H. LEE MOFFITT CANCER CENTER AND RESEARCH INSTITUTE, INC., priority 2021, published 2025).

One test deals with T1, ULK1 kinase (Homo sapiens, UniProt O75385).
T1 construct: purchased Reaction Biology
T1 sequence (O75385 1-1050): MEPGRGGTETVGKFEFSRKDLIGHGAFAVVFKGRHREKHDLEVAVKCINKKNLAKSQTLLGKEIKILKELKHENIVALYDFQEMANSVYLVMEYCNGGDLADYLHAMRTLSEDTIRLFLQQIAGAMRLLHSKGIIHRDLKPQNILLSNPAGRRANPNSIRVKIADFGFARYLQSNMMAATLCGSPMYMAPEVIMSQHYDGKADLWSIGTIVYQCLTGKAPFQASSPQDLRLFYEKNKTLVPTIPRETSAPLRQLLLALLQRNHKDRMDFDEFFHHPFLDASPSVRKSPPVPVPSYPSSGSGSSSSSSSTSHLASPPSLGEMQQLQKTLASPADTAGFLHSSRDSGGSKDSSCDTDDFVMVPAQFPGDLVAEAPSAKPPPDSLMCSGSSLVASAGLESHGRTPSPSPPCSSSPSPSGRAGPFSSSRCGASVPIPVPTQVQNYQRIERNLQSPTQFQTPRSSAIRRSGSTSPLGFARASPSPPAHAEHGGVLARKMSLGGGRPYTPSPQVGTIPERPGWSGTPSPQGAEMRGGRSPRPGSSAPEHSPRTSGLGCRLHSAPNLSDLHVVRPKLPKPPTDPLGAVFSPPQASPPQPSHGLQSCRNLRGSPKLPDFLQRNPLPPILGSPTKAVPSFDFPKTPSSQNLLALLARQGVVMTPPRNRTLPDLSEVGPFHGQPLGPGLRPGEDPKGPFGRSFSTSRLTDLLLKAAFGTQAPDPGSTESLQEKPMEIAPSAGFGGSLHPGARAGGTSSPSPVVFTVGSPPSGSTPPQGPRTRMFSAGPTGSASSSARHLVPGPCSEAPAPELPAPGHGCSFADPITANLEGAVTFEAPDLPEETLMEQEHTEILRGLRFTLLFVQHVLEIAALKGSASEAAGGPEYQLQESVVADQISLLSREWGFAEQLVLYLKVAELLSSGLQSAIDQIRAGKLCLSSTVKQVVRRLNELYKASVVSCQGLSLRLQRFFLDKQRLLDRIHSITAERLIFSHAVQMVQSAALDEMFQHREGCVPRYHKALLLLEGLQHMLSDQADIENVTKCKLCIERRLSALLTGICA
The experiment in a line: Radiometric HotSpot kinase assay (Reaction Biology). In kind it is biochemical. As to conditions: activity-based ULK1 kinase assay.

In a further test the target is T2, GST-ULK1 (Homo sapiens, UniProt O75385).
T2 sequence (O75385 1-1050): T1 sequence (O75385 1-1050)
As to the kind of experiment: LanthaScreen ULK1 inhibitor assay. The test is classed as biochemical. As to conditions: 5 nM GST-ULK1, 30 nM tracer, 20 μM ATP, 1 hr room temperature.

For the next test, the target named is T3, ULK1 kinase domain (Homo sapiens, UniProt O75385).
T3 construct: The protein expression construct of ULK1 kinase domain (1-283) was cloned; 6His-Sumo (N, cleaved yes); made in house; host or cells: E. coli BL21 star, co-expressed with lambda phosphatase
T3 sequence (O75385 1-283): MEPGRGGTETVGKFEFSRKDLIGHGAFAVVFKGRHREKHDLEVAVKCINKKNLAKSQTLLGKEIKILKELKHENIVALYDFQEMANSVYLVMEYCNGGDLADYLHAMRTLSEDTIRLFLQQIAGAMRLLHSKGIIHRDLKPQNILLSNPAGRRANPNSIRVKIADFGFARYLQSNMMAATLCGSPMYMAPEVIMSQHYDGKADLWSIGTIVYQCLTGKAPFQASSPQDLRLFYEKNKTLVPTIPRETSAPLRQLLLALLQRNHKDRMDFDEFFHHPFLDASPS
The experiment in a line: Differential scanning fluorimetry (thermal shift). Particulars: 2 μM ULK1 kinase domain, 50 μM compound, vs DMSO reference. In kind it is binding.

In a further test the target is T4, ULK1-nanoluc (Homo sapiens, UniProt O75385).
T4 construct: host or cells: H2030 cells (ATCC)
T4 sequence (O75385 1-1050): T1 sequence (O75385 1-1050)
The experiment in a line: NanoBRET target engagement in live cells. Particulars: H2030 cells transfected with ULK1-nanoluc, Tracer K10, 2 hr. The test is classed as cell-based.

With `CC[C@@H](CO)NC(=O)c1cccc(-c2cnc3[nH]c(-c4ccc(F)cc4)cc3c2)n1` [Compound 59, (S)-6-(2-(4-Fluorophenyl)-1H-pyrrolo[2,3-b]pyridin-5-yl)-N-(1-hydroxybutan-2-yl)-picolinamide], the half-maximal inhibitory concentration (IC50) against ULK1 kinase is 7 nM; on GST-ULK1, 0.01 µM. Besides, the ΔTm at 50 µM on ULK1 kinase domain came to 11 °C. The same molecule showed an EC50 on ULK1-nanoluc of 0.149 µM.

`C[C@@H](CO)NC(=O)c1cc(-c2cnc3[nH]c(C4=CCNCC4)cc3c2)cs1` [Compound 106] displayed an IC50 at GST-ULK1 of 0.016 µM. The molecule further had a half-maximal effective concentration (EC50) on ULK1-nanoluc of 1.13 µM.

As to `O=C(NCCF)c1nc(-c2cnc3[nH]c(-c4ccc(F)cc4)cc3c2)cs1` [Compound 78, N-(2-fluoroethyl)-4-(2-(4-fluoro-phenyl)-1H-pyrrolo[2,3-b]pyridin-5-yl)thiazole-2-carboxamide], the 50% inhibitory concentration (IC50) against ULK1 kinase turned out to be 20 nM; on GST-ULK1, 0.027 µM. In addition, the thermal shift (ΔTm) at 50 µM on ULK1 kinase domain was 4.83 °C. Besides, the midpoint of the response on ULK1-nanoluc, the EC50, lay at 0.282 µM.

`C[C@@H](CO)NC(=O)c1cc(-c2cnc3[nH]c(C4=CCN(C)CC4)cc3c2)cs1` [Compound 107] came in with a concentration for half-maximal inhibition (IC50) against GST-ULK1 of 0.019 µM. The molecule further gave a concentration for a half-maximal effect (EC50) on ULK1-nanoluc of 0.391 µM.

Regarding `O=C(NCC(F)(F)F)c1cc(-c2cnc3[nH]c(-c4ccc(OCCN5CCCCC5)cc4)cc3c2)cs1` [Compound 38, 4-(2-(4-(2-(Piperidin-1-yl)ethoxy)phenyl)-1H-pyrrolo[2,3-b]pyridin-5-yl)-N-(2,2,2-trifluoroethyl)thiophene-2-carboxamide], the half-maximal inhibitory concentration (IC50) at ULK1 kinase turned out to be 15 nM; against GST-ULK1, 0.014 µM. The thermal shift (ΔTm) at 50 µM on ULK1 kinase domain stood at 12.8 °C. Also, at ULK1-nanoluc, the midpoint of the response, the EC50, lay at 0.022 µM.

`FC1(F)CN(c2c(C(F)(F)F)cnc3[nH]c(C4=CCNC4)cc23)C1` [Compound 140] registered a concentration for half-maximal inhibition (IC50) on GST-ULK1 of 0.001 µM. The molecule also returned an EC50 at ULK1-nanoluc of 0.086 µM.

As for `FC(F)(F)c1cnc2[nH]c(C3=CCOCC3)cc2c1NCCN1CCOCC1` [Compound 89, 2-(3,6-dihydro-2H-pyran-4-yl)-N-(2-morpholinoethyl)-5-(trifluoromethyl)-1H-pyrrolo[2,3-b]pyridin-4-amine], the IC50 is 37 nM at ULK1 kinase and 0.092 µM on GST-ULK1. Moreover, the ΔTm at 50 µM on ULK1 kinase domain is 8.13 °C. This molecule also yielded an EC50 on ULK1-nanoluc of 1.16 µM.

With `CN1CC=C(c2cc3c(NC4CCNC4)c(C(F)(F)F)cnc3[nH]2)CC1` (stereo not drawn) [Compound 98, 2-(1-methyl-1,2,3,6-tetrahydropyridin-4-yl)-N-(pyrrolidin-3-yl)-5-(trifluoromethyl)-1H-pyrrolo[2,3-b]pyridin-4-amine], the concentration for half-maximal inhibition (IC50) was 144 nM on ULK1 kinase and 0.057 µM on GST-ULK1. At ULK1 kinase domain, the ΔTm at 50 µM was 10.3 °C. This molecule registered an EC50 on ULK1-nanoluc of 0.184 µM.

For `O=C(NCC1CC1)c1nc(-c2cnc3[nH]c(-c4ccc(F)cc4)cc3c2)cs1` [Compound 71, N-(cyclopropylmethyl)-4-(2-(4-fluorophenyl)-1H-pyrrolo[2,3-b]-pyridin-5-yl)thiazole-2-carboxamide], the figures for the IC50 on ULK1 kinase and against GST-ULK1 were 14 nM and 0.039 µM, respectively. Besides, the ΔTm at 50 µM on ULK1 kinase domain is 3.73 °C. The same molecule displayed an EC50 on ULK1-nanoluc of 0.414 µM.

Regarding `O=C(NCC1(O)CCC1)c1nc(-c2cnc3[nH]c(-c4ccc(F)cc4)cc3c2)cs1` [Compound 70, 4-(2-(4-fluorophenyl)-1H-pyrrolo[2,3-b]pyridin-5-yl)-N-((1-hydroxycyclobutyl)methyl)thiazole-2-carboxamide], the results for the IC50 on ULK1 kinase and against GST-ULK1 were 22 nM and 0.008 µM, respectively. Further, the ΔTm at 50 µM at ULK1 kinase domain was 8.04 °C. The response at ULK1-nanoluc was half-maximal at 0.129 µM (EC50).

Take `C[C@H](CO)NC(=O)c1cc(-c2cnc3[nH]c(C4=CCCNC4)cc3c2)cs1` [Compound 103]: the IC50 at GST-ULK1 is 0.036 µM. Moreover, the 50% effective concentration (EC50) at ULK1-nanoluc is 1.4 µM.

Turning to `C[C@H](CO)NC(=O)c1cc(-c2cnc3[nH]c(C4=CCNC4)cc3c2)cs1` [Compound 105], half-maximal inhibition against GST-ULK1 (IC50) required 0.139 µM. Besides, the concentration giving a half-maximal response (EC50) at ULK1-nanoluc was ≥ 10 µM.

In the case of `CN1CC=C(c2cc3c(NCCN4CCNCC4)c(C(F)(F)F)cnc3[nH]2)CC1` [Compound 101, 2-(1-methyl-1,2,3,6-tetrahydropyridin-4-yl)-N-(2-(piperazin-1-yl)ethyl)-5-(trifluoromethyl)-1H-pyrrolo[2,3-b]pyridin-4-amine], the IC50 was 131 nM on ULK1 kinase and 0.05 µM against GST-ULK1. For the same molecule, the ΔTm at 50 µM on ULK1 kinase domain is 11 °C. At ULK1-nanoluc, the midpoint of the response, the EC50, lay at 0.157 µM.

In the case of `O=C(NCC1(O)CC1)c1nc(-c2cnc3[nH]c(-c4ccc(F)cc4)cc3c2)cs1` [Compound 73, 4-(2-(4-fluorophenyl)-1H-pyrrolo-[2,3-b]pyridin-5-yl)-N-((1-hydroxy-cyclopropyl)methyl)thiazole-2-carboxamide], the half-inhibitory concentration (IC50) was 10 nM against ULK1 kinase and 0.003 µM against GST-ULK1. In addition, the ΔTm at 50 µM at ULK1 kinase domain stood at 7.72 °C. Also, the EC50 at ULK1-nanoluc stood at 0.195 µM.

On to `O=C(NCC(F)F)c1nc(-c2cnc3[nH]c(-c4ccc(F)cc4)cc3c2)cs1` [Compound 79, N-(2,2-difluoroethyl)-4-(2-(4-fluorophenyl)-1H-pyrrolo[2,3-b]-pyridin-5-yl)thiazole-2-carboxamide], for which the IC50 on ULK1 kinase is 12 nM; against GST-ULK1, 0.016 µM. Besides, the ΔTm at 50 µM on ULK1 kinase domain was 5.45 °C. On ULK1-nanoluc, this molecule gave an EC50 of 0.156 µM.

Consider `CC[C@@H](CO)NC(=O)c1nc(-c2cnc3[nH]c(-c4ccc(F)cc4)cc3c2)cs1` [Compound 61, (S)-4-(2-(4-Fluorophenyl)-1H-pyrrolo[2,3-b]pyridin-5-yl)-N-(1-hydroxybutan-2-yl)-thiazole-2-carboxamide], for which the 50% inhibitory concentration (IC50) against ULK1 kinase stood at 8 nM; against GST-ULK1, 0.007 µM. In addition, at ULK1 kinase domain, the ΔTm at 50 µM was 9.31 °C. This molecule also showed an EC50 at ULK1-nanoluc of 0.131 µM.

As for `C[C@@H](CO)NC(=O)c1cc(-c2cnc3[nH]c(C4=CCCNC4)cc3c2)cs1` [Compound 102], inhibition at GST-ULK1 was half-maximal at 0.015 µM (IC50). The half-maximal effective concentration (EC50) at ULK1-nanoluc was 0.952 µM.

`C[C@@H](CO)NC(=O)c1cc(-c2cnc3[nH]c(C4=CCNC4)cc3c2)cs1` [Compound 104] had an IC50 at GST-ULK1 of 0.029 µM. The molecule further registered an EC50 at ULK1-nanoluc of 4.29 µM.

For `O=C(NC[C@H](O)CO)c1cccc(-c2cnc3[nH]c(-c4ccc(F)cc4)cc3c2)c1` [Compound 51, (S)—N-(2,3-Dihydroxypropyl)-3-(2-(4-fluorophenyl)-1H-pyrrolo[2,3-b]pyridin-5-yl)-benzamide], the 50% inhibitory concentration (IC50) against ULK1 kinase was found to be 184 nM; at GST-ULK1, 0.387 µM. Besides, the ΔTm at 50 µM at ULK1 kinase domain was 4.76 °C.

The molecule `O=C(NCC1(O)CC1)c1cc(-c2cnc3[nH]c(C4=CNCCC4)cc3c2)cs1` [Compound 108] gave a 50% inhibitory concentration (IC50) on GST-ULK1 of 0.026 µM. Moreover, at ULK1-nanoluc, it took 0.219 µM to reach a half-maximal effect (EC50).

Regarding `FC(F)(F)c1cnc2[nH]c(C3CCOCC3)cc2c1NCCCN1CCCC1` [Compound 90, N-(3-(pyrrolidin-1-yl)propyl)-2-(tetrahydro-2H-pyran-4-yl)-5-(trifluoromethyl)-1H-pyrrolo[2,3-b]pyridin-4-amine], the IC50 on ULK1 kinase is 155 nM; on GST-ULK1, 0.145 µM. In addition, at ULK1 kinase domain, the thermal shift (ΔTm) at 50 µM came out at 9.23 °C.

For the molecule `CS(=O)(=O)N1CCN(C(=O)c2cc(-c3cnc4[nH]c(-c5ccc(F)cc5)cc4c3)cs2)CC1` [Compound 29, (4-(2-(4-Fluorophenyl)-1H-pyrrolo[2,3-b]pyridin-5-yl)thiophen-2-yl)(4-(methyl-sulfonyl)piperazin-1-yl)methanone], the 50% inhibitory concentration (IC50) was determined as 938 nM on ULK1 kinase and 1.23 µM against GST-ULK1. For the same molecule, on ULK1 kinase domain, the ΔTm at 50 µM was 0.9 °C.

With `CC(C)(C)OC(=O)N1CCC=C(c2cc3cc(-c4csc(C(=O)NCC(F)(F)F)c4)cnc3[nH]2)C1` [Compound 41, tert-Butyl 5-(5-(5-((2,2,2-trifluoroethyl)carbamoyl)thiophen-3-yl)-1H-pyrrolo[2,3-b]-pyridin-2-yl)-3,6-dihydropyridine-1(2H)-carboxylate], the IC50 was determined as 333 nM on ULK1 kinase and 0.075 µM against GST-ULK1. On ULK1 kinase domain, the thermal shift (ΔTm) at 50 µM came to 9.89 °C.
